From BindingDB's records for patent US11440923 (2022)

The compounds below were run against T1, Induced myeloid leukemia cell differentiation protein Mcl-1 [K194A,K197A,R201A] (Homo sapiens, UniProt Q07820, K194A/K197A/R201A) (assay: Protein-Protein Interaction Assay: MCL-1/Noxa BH3 Peptide (MCL-1 Assay)).
T1 construct: gene MCL1
T1 sequence (Q07820 whole entry K194A/K197A/R201A, looked up): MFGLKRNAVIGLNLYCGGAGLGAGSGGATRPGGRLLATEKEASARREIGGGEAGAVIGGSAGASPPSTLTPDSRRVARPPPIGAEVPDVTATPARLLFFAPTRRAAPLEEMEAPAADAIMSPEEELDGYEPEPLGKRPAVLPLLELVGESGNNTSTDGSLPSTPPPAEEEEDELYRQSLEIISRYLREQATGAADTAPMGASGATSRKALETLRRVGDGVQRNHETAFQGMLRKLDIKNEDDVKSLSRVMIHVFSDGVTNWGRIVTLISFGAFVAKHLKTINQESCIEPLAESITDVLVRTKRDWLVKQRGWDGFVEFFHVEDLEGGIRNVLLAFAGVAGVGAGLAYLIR
Description: The dose-dependent inhibition by the compounds described in this invention of the interaction between MCL-1 and the BH3 domain of Noxa (both human) was determined using a steady state binding competition assay with time-resolved fluorescence energy transfer (TR-FRET) readout. […] The MBP-MCL-1 was purchased from Beryllium (Bedford, Mass., USA). […] The Noxa BH3-derived peptide can be obtained from e.g. Biosyntan (Berlin, Germany).

**Q.** How did the IC50 turn out when `CCc1c2c(nn1C)C(CCC1CCOCC1)OCCCCn1c(C(=O)O)c(CCCOc3cccc4cc(F)ccc34)c3ccc(Cl)c-2c31` (racemic) [US11440923, Example 60] was run?
**A.** 0.69 nM

**Q.** `CCc1c2c(nn1C)C1CCCCN1CCCCn1c(C(=O)O)c(CCCOc3cccc4ccccc34)c3ccc(Cl)c-2c31` (racemic) [US11440923, Example 102] was tested. Which IC50 did it give?
**A.** 0.94 nM

**Q.** With `CCc1c2c(nn1C)C(CCN1CCOCC1)OCCCCn1c(C(=O)O)c(CCCOc3cccc4cc(F)ccc34)c3ccc(Cl)c-2c31` (single isomer, unassigned) [US11440923, Example 23] as the compound, how does the IC50 read?
**A.** 0.63 nM

**Q.** `CCc1c2c(nn1C)C(CCC1CCOCC1)OCCCCn1c(C(=O)O)c(CCCOc3cccc4cc(F)ccc34)c3ccc(Cl)c-2c31` (single isomer, unassigned) [US11440923, Example 63] was tested. Which IC50 did it give?
**A.** 0.88 nM

**Q.** Which IC50 does the source give for `CCc1c2c(nn1C)C(CCN1CC(F)(F)C1)OCCCCn1c(C(=O)O)c(CCCOc3cccc4cc(F)ccc34)c3ccc(Cl)c-2c31` (single isomer, unassigned) [US11440923, Example 78] here?
**A.** 0.42 nM

**Q.** Which IC50 does the source give for `CCC1OCCCCn2c(C(=O)O)c(CCCOc3cccc4ccccc34)c3ccc(Cl)c(c32)-c2c1nn(C)c2C` (single isomer, unassigned; form 1) [US11440923, Example 29] here?
**A.** 1 nM

**Q.** `CCc1c2c(nn1C)C(C(F)(F)F)OCCCCn1c(C(=O)O)c(CCCOc3cccc4ccccc34)c3ccc(Cl)c-2c31` (single isomer, unassigned; form 1) [US11440923, Example 33] was tested. Which IC50 did it give?
**A.** 2.1 nM

**Q.** For `Cc1c2c(nn1C)C(C1CC1)OCCCCn1c(C(=O)O)c(CCCOc3cccc4ccccc34)c3ccc(Cl)c-2c31` (single isomer, unassigned; form 1) [US11440923, Example 35], which IC50 is on record?
**A.** 0.73 nM

**Q.** How did the IC50 turn out when `CCc1c2c(nn1C)C(C1CC1)OCCCCn1c(C(=O)O)c(CCCOc3cccc4cc(F)ccc34)c3ccc(Cl)c-2c31` (single isomer, unassigned; form 1) [US11440923, Example 39] was run?
**A.** 0.72 nM

**Q.** `CCc1c2c(nn1C)C(CCOC)OCCCCn1c(C(=O)O)c(CCCOc3cccc4cc(F)ccc34)c3ccc(Cl)c-2c31` (single isomer, unassigned; form 1) [US11440923, Example 42] was tested. Which IC50 did it give?
**A.** 0.33 nM

**Q.** `CCc1c2c(nn1C)C(CC(C)(C)O)OCCCCn1c(C(=O)O)c(CCCOc3cccc4cc(F)ccc34)c3ccc(Cl)c-2c31` (single isomer, unassigned; form 1) [US11440923, Example 53] was tested. Which IC50 did it give?
**A.** 0.41 nM

**Q.** How did the IC50 turn out when `CCc1c2c(nn1C)C(CCC(C)(C)O)OCCCCn1c(C(=O)O)c(CCCOc3cccc4cc(F)ccc34)c3ccc(Cl)c-2c31` (single isomer, unassigned; form 1) [US11440923, Example 75] was run?
**A.** 0.37 nM

**Q.** Which IC50 does the source give for `CCC1OCCCCn2c(C(=O)O)c(CCCOc3cccc4ccccc34)c3ccc(Cl)c(c32)-c2c1nn(C)c2C` (single isomer, unassigned; form 2) [US11440923, Example 30] here?
**A.** 200 nM

**Q.** `CCc1c2c(nn1C)C(C(F)(F)F)OCCCCn1c(C(=O)O)c(CCCOc3cccc4ccccc34)c3ccc(Cl)c-2c31` (single isomer, unassigned; form 2) [US11440923, Example 34] was tested. Which IC50 did it give?
**A.** 370 nM

**Q.** Which IC50 does the source give for `Cc1c2c(nn1C)C(C1CC1)OCCCCn1c(C(=O)O)c(CCCOc3cccc4ccccc34)c3ccc(Cl)c-2c31` (single isomer, unassigned; form 2) [US11440923, Example 36] here?
**A.** 280 nM

**Q.** How did the IC50 turn out when `CCc1c2c(nn1C)C(C1CC1)OCCCCn1c(C(=O)O)c(CCCOc3cccc4cc(F)ccc34)c3ccc(Cl)c-2c31` (single isomer, unassigned; form 2) [US11440923, Example 40] was run?
**A.** 48 nM

**Q.** `CCc1c2c(nn1C)C(CCOC)OCCCCn1c(C(=O)O)c(CCCOc3cccc4cc(F)ccc34)c3ccc(Cl)c-2c31` (single isomer, unassigned; form 2) [US11440923, Example 43] was tested. Which IC50 did it give?
**A.** 88 nM

**Q.** With `CCc1c2c(nn1C)C(CC(C)(C)O)OCCCCn1c(C(=O)O)c(CCCOc3cccc4cc(F)ccc34)c3ccc(Cl)c-2c31` (single isomer, unassigned; form 2) [US11440923, Example 54] as the compound, how does the IC50 read?
**A.** 47 nM

**Q.** With `CCc1c2c(nn1C)C(CCC(C)(C)O)OCCCCn1c(C(=O)O)c(CCCOc3cccc4cc(F)ccc34)c3ccc(Cl)c-2c31` (single isomer, unassigned; form 2) [US11440923, Example 76] as the compound, how does the IC50 read?
**A.** 90 nM

**Q.** Which IC50 does the source give for `Cc1c2c(nn1C)C(CCN1CCOCC1)OCCCCn1c(C(=O)O)c(CCCOc3cccc4cc(F)ccc34)c3ccc(Cl)c-2c31` (configuration not stated) [US11440923, Example 16] here?
**A.** 1.2 nM

**Q.** How did the IC50 turn out when `Cc1c2c(nn1C)C(CCN1CCOCC1)OCCCCn1c(C(=O)O)c(CCCOc3cccc4cc(F)ccc34)c3ccc(F)c-2c31` (configuration not stated) [US11440923, Example 19] was run?
**A.** 0.79 nM

**Q.** For `CCc1c2c(nn1C)[C@@H](CCN1CCOCC1)OCCCCn1c(C(=O)O)c(CCCOc3cccc4cc(F)ccc34)c3ccc(Cl)c-2c31` [US11440923, Example 48], which IC50 is on record?
**A.** 3.6 nM
